In PMC5653977 (EMBO Molecular Medicine, 2017):
Counter-ions that a name gives are not always drawn. Like-named read-outs stand apart in the source and are kept apart here.

Tested on: NRG1-ERBB4 signaling
Test: Nrg1-ERBB4-PIK3R1 split TEV co-culture compound screen of the NIH Clinical Collection
Type: cell-based, human
[1] = compound screen of the NIH Clinical Collection, sheet raw data NCC-003, compounds ranked by Z-score
[2] = compounds at 10 μM, 24 h, PC12 split TEV assay cells co-cultured with Nrg1-expressing PC12 cells, analysed with cellHTS2
[3] = NIH Clinical Collection NCC-003 raw data, compounds ranked by Z-score, 'flagged' given instead of a Z-score

SMILES | Z-SCORE [1] | Z-SCORE [2] | other results
CC(=O)O[C@H]1C[C@@H]2CC[C@@H]3[C@H](CC[C@@]4(C)[C@H]3C[C@H]([N+]3(C)CCCCC3)[C@@H]4OC(C)=O)[C@@]2(C)C[C@@H]1[N+]1(C)CCCCC1 [Pancuronium] | -0.32 | – | –
Fc1ccc([C@@H]2CCNC[C@H]2COc2ccc3c(c2)OCO3)cc1 [Paroxetine, reference compound] | 2.09 | -0.28 | Z-SCORE (compound screen of the NIH Clinical Collection, sheet raw data NCC-003, compounds ranked by Z-score, listed as PAROXETINE): 1.3
NC1=NC(=O)C(c2ccccc2)O1 (centres unmarked) [Pemoline] | -0.71 | – | –
CC1(C)S[C@@H]2[C@H](NC(=O)COc3ccccc3)C(=O)N2[C@H]1C(=O)O [Penicillin V, reference compound] | – | 0.66 | –
CC(=O)CCCCn1c(=O)c2c(ncn2C)n(C)c1=O [Pentoxifylline] | -0.43 | – | –
CC1(C)S[C@@H]2[C@H](NC(=O)Cc3ccccc3)C(=O)N2[C@H]1C(=O)O [Pfizerpen, reference compound] | – | -0.19 | –
NNCCc1ccccc1 [Phenelzine, reference compound] | – | -0.21 | –
CC(CN1c2ccccc2Sc2ccccc21)N(C)C (centres unmarked) [Phenergan, reference compound] | – | 0.41 | –
CC1=C(C/C=C(\C)CCC[C@H](C)CCC[C@H](C)CCCC(C)C)C(=O)c2ccccc2C1=O [Phylloquinone, reference compound] | – | -0.1 | –
CNC(=O)Oc1ccc2c(c1)[C@]1(C)CCN(C)[C@@H]1N2C [Physostigmine] | 0.16 | – | –
CC(N/C(=N\C#N)Nc1ccncc1)C(C)(C)C (centres unmarked) [Pinacidil monohydrate] | 0.85 | – | –
c1cnc(N2CCN(Cc3ccc4c(c3)OCO4)CC2)nc1 [Piribedil] | 1.22 | – | –
CN1C(C(=O)Nc2ccccn2)=C(O)c2ccccc2S1(=O)=O [Piroxicam] | 0.27 | – | –
CN1CCC(=C2c3ccccc3CCc3sccc32)CC1 [Pizotyline] | -0.22 | – | –
COc1cc([C@@H]2c3cc4c(cc3[C@H](O)[C@H]3COC(=O)[C@H]23)OCO4)cc(OC)c1OC [Podofilox, reference compound] | – | flagged | –
CCCN[C@H]1CCc2nc(N)sc2C1 [Pramipexole] | -0.29 | – | –
C[C@]12C=CC(=O)C=C1CC[C@@H]1[C@@H]2[C@@H](O)C[C@@]2(C)[C@H]1CC[C@]2(O)C(=O)CO [Prednisolone, reference compound] | – | -1.95 | –
C[C@]12C=CC(=O)C=C1CC[C@@H]1[C@@H]2C(=O)C[C@@]2(C)[C@H]1CC[C@]2(O)C(=O)CO [Prednisone, reference compound] | – | -0.15 | –
COc1cc(NC(C)CCCN)c2ncccc2c1 (centres unmarked) [Primaquine Diphosphate, reference compound] | – | -0.7 | –
CCC1(c2ccccc2)C(=O)NCNC1=O [Primidone, reference compound] | – | 1.6 | –
c1ccc(CC2=NCCN2)cc1 [Priscoline, reference compound] | – | 1.86 | –
COc1ccc(OC)c(C(O)CNC(=O)CN)c1 (centres unmarked) [Pro-Amatine, reference compound] | – | 0.01 | –
CC(C)[N+](C)(CCOC(=O)C1c2ccccc2Oc2ccccc21)C(C)C [Pro-Banthine, reference compound] | – | -0.77 | –

SMILES | Z-SCORE [1] | Z-SCORE [2] | other results
CCCN(CCC)S(=O)(=O)c1ccc(C(=O)O)cc1 [Probenecid, reference compound] | – | 1.6 | –
CCN(CC)CCNC(=O)c1ccc(N)cc1 [Pronestyl, reference compound] | – | 0.04 | –
CCCOc1ccc(C(=O)OCCN(CC)CC)cc1N [Proparacaine hydrochloride, reference compound] | – | 0.5 | –
CC(C)c1cccc(C(C)C)c1O [Propofol, reference compound] | – | – | Z-SCORE: -0.98
CCCc1cc(=O)[nH]c(=S)[nH]1 [Propylthiouracil, reference compound] | – | 0.58 | –
CCCCC[C@H](O)/C=C/[C@H]1[C@H](O)CC(=O)[C@@H]1CCCCCCC(=O)O [Prostaglandin E1] | 0.18 | – | –
CNCCC(Oc1ccc(C(F)(F)F)cc1)c1ccccc1 (centres unmarked) [Prozac, reference compound] | – | -1.46 | –
NC(=O)c1cnccn1 [Pyrazinamide, reference compound] | – | 1.05 | –
CCc1nc(N)nc(N)c1-c1ccc(Cl)cc1 [Pyrimethamine, reference compound] | – | 0.29 | –
OCCOCCN1CCN(C2=Nc3ccccc3Sc3ccccc32)CC1 [QUETIAPINE HEMIFUMARATE] | – | – | Z-SCORE [3]: -1.26
CCOC(=O)[C@H](CCc1ccccc1)N[C@@H](C)C(=O)N1Cc2ccccc2C[C@H]1C(=O)O [Quinapril hydrochloride, reference compound] | – | -1.66 | –
CN1CCc2cc(Cl)c(O)cc2[C@@H](c2ccccc2)C1.Cl [R(+)-SCH-23390 hydrochloride] | 0.87 | – | –
COCCCOc1ccnc(C[S+]([O-])c2nc3ccccc3[nH]2)c1C (centres unmarked) [RABEPRAZOLE] | -0.02 | – | –
Cc1nc2ccc(CN(C)c3ccc(C(=O)N[C@@H](CCC(=O)O)C(=O)O)s3)cc2c(=O)[nH]1 [RALTITREXED] | -0.52 | – | –
CCOc1cc(CC(=O)N[C@@H](CC(C)C)c2ccccc2N2CCCCC2)ccc1C(=O)O [REPAGLINIDE] | 1.38 | – | –
CO[C@H]1/C=C/O[C@@]2(C)Oc3c(C)c(O)c4c(O)c(c(/C=N/N5CCN(C)CC5)c(O)c4c3C2=O)NC(=O)/C(C)=C\C=C\[C@H](C)[C@H](O)[C@@H](C)[C@@H](O)[C@@H](C)[C@H](OC(C)=O)[C@@H]1C [RIFAMPICIN, reference compound] | – | -0.22 | –
CO[C@H]1/C=C/O[C@@]2(C)Oc3c(C)c(O)c4c(O)c(c(/C=N/N5CCN(C6CCCC6)CC5)c(O)c4c3C2=O)NC(=O)/C(C)=C\C=C\[C@H](C)[C@H](O)[C@@H](C)[C@@H](O)[C@@H](C)[C@H](OC(C)=O)[C@@H]1C [RIFAPENTINE, reference compound] | 0.75 | 0.91 | –
CO[C@H]1/C=C/O[C@@]2(C)Oc3c(C)c(O)c4c(O)c(c5c(nc6cc(C)ccn65)c4c3C2=O)NC(=O)/C(C)=C\C=C\[C@H](C)[C@H](O)[C@@H](C)[C@@H](O)[C@@H](C)[C@H](OC(C)=O)[C@@H]1C [RIFAXIMIN] | 0.05 | – | –
Cc1nc2n(c(=O)c1CCN1CCC(c3noc4cc(F)ccc34)CC1)CCCC2 [RISPERIDONE] | 0 | – | –
CC(C)c1nc(CN(C)C(=O)N[C@H](C(=O)N[C@@H](Cc2ccccc2)C[C@H](O)[C@H](Cc2ccccc2)NC(=O)OCc2cncs2)C(C)C)cs1 [RITONAVIR] | -0.37 | – | –
CN(C)CCc1c[nH]c2ccc(Cn3cncn3)cc12 [RIZATRIPTAN BENZOATE] | -0.76 | – | –
CS(=O)(=O)c1ccc(C2=C(c3ccccc3)C(=O)OC2)cc1 [ROFECOXIB] | 0.81 | – | –
COc1ccc(C2CNC(=O)C2)cc1OC1CCCC1 (centres unmarked) [ROLIPRAM] | 1.06 | – | –

SMILES | Z-SCORE [1] | Z-SCORE [2] | other results
CN(C)[C@@H]1C(O)=C(C(=O)NCN2CCCC2)C(=O)[C@@]2(O)C(O)=C3C(=O)c4c(O)cccc4[C@@](C)(O)[C@H]3C[C@@H]12 [ROLITETRACYCLINE] | -0.5 | – | –
CCCN1CCCC[C@H]1C(=O)Nc1c(C)cccc1C [ROPIVACAINE HCl] | -0.05 | – | –
CN(CCOc1ccc(CC2SC(=O)NC2=O)cc1)c1ccccn1.Cl (centres unmarked) [ROSIGLITAZONE HCl] | 0.11 | – | –
CN(CCOc1ccc(CC2SC(=O)NC2=O)cc1)c1ccccn1 (centres unmarked) [ROSIGLITAZONE MALEATE] | -0.83 | – | –
CC(=O)OCC(=O)NCCCOc1cccc(CN2CCCCC2)c1 [ROXATIDINE ACETATE HCl] | -0.59 | – | –
COc1ccc2[nH]cc(C3=CCNCC3)c2c1 [RU 24969] | 0.79 | – | –
CN1CCN(c2c(F)cc3c(=O)c(C(=O)O)cn4c3c2SCC4)CC1.Cl [RUFLOXACIN HCl] | 1.1 | – | –
C[C@@H]1O[C@@H](OC[C@H]2O[C@@H](Oc3c(-c4ccc(O)c(O)c4)oc4cc(O)cc(O)c4c3=O)[C@H](O)[C@@H](O)[C@@H]2O)[C@H](O)[C@H](O)[C@H]1O [RUTIN] | 0.13 | – | –
CCN1CCC[C@H]1CNC(=O)c1c(O)c(Cl)cc(Cl)c1OC [Raclopride] | -0.81 | – | –
CNC(=C[N+](=O)[O-])NCCSCc1ccc(CN(C)C)o1 [Ranitidine hydrochloride, reference compound] | – | -0.51 | –
COc1ccccc1OCC(O)CN1CCN(CC(=O)Nc2c(C)cccc2C)CC1 (centres unmarked) [Ranolazine dihydrochloride] | 0.21 | – | –
C[C@]12CCC(=O)C=C1CC[C@@H]1[C@@H]2CC[C@@]2(C)[C@H]1CC[C@]2(O)C(=O)CO [ReichsteinÂ’s substanceÂ S] | – | – | Z-SCORE [3]: -1.82
Oc1ccc(/C=C/c2cc(O)cc(O)c2)cc1 [Resveratrol] | 2.61 | – | –
CC1=C(/C=C/C(C)=C/C=C/C(C)=C/C(=O)O)C(C)(C)CCC1 [Retinoic acid, reference compound] | – | 1.72 | –
NC(=O)c1ncn([C@@H]2O[C@H](CO)[C@@H](O)[C@H]2O)n1 [Ribavirin, reference compound] | – | 0.53 | –
CO[C@H]1/C=C/O[C@@]2(C)Oc3c(C)c(O)c4c(c3C2=O)C2=NC3(CCN(CC(C)C)CC3)NC2=C(NC(=O)/C(C)=C\C=C\[C@H](C)[C@H](O)[C@@H](C)[C@@H](O)[C@@H](C)[C@H](OC(C)=O)[C@@H]1C)C4=O [Rifabutin, reference compound] | 0.07 | -1.04 | –
Nc1nc2ccc(OC(F)(F)F)cc2s1 [Riluzole] | -0.53 | – | –
C[C@@H]1CN(CCCn2c3ccccc3c3ccccc32)C[C@H](C)N1 [Rimcazole] | 0.6 | – | –
CCCNCC(O)COc1ccccc1C(=O)CCc1ccccc1 (centres unmarked) [Rythmol, reference compound] | – | 0.2 | –
CC(C)(C)NCC(O)c1ccc(O)c(CO)c1.CC(C)(C)NCC(O)c1ccc(O)c(CO)c1.O=S(=O)(O)O (centres unmarked) [SALBUTAMOL SULFATE] | -0.61 | – | –
CC(C)(C)NC(=O)[C@@H]1C[C@@H]2CCCC[C@@H]2CN1C[C@@H](O)[C@H](Cc1ccccc1)NC(=O)[C@H](CC(N)=O)NC(=O)c1ccc2ccccc2n1 [SAQUINAVIR MESYLATE] | -0.84 | – | –
